Results published in patent publication US4223032A, “Triazolo [4,5-b] quinolines and prophylaxis of allergic diseases with them” (Beecham Group Limited, priority 1977, dated 1980).

Tested on: passive cutaneous anaphylaxis (PCA)
Assay: Passive Cutaneous Anaphylaxis (PCA)
Format: in vivo, Male Wistar rats
Settings: rat, i.v., carrier PBS with NaHCO3, time 0 mins before antigen challenge
Procedure: Passive Cutaneous Anaphylaxis (PCA)
Serum containing heat labile homocytotropic antibody was raised in rats to crystallized ovalbumin XOA by the method of Mota (I. Mota, Immunology, 7,681 [1964] using Bordettela pertussis vaccine as adjuvant.
Passive cutaneous anaphylaxis (PCA) was carried out by a method based on that of Ovary and Bier, (A. Ovary and O. G. Bier, Proc. Soc. Exp. Biol. Med. 81, 584, [1952]) as modified by Goose and Blair. (Immunology 16, 749 [1969]).
Male Wistar rats of 250-300 g. were given 0.1 ml. of each of six twofold serial dilutions of pooled antiserum in 0.9% saline injected intradermally into separate sites on their shaved backs. Later (72 hrs.) the animals were challenged by intravenous injection of 0.3 ml. of a 1% solution of ovalbumin in an isotonic solution of saline buffered with 0.05 M, pH 7.2, Sorenson Buffer (PBS), mixed with 0.2 ml. of a 5% solution of Pontamine Sky Blue (6BX C.I. 24410, Raymond A. Lamb, London) in isotonic saline. The rats were killed after 20 min and the diameter of the blue wheals at the antibody injection sites was measured on the outer surface of the skin. The starting dilution of the serum was adjusted so that there was no response, after challenge, at the injection site of the highest dilution and a maximum response at the lowest dilutions. Typically six twofold serial dilutions of the serum from 1/4 to 1/128 were used.
Compounds were tested for their ability to reduce the diameter of the wheals at those intradermal sites which in control animals gave less than maximum response. Each dose of the compound was administered to six rats at a measured time prior to intravenous challenge with ovalbumin. Control groups of six rats were given the same volume (0.2 ml/100 g) of carrier fluid at the same time prior to the challenge.
The results were calculated as follows. % inhibition of PCA=100 (1-a/b) where a=the sum of the diameters of the wheals produced in the test animal at the sites of antibody dilutions as used in control groups and b=the mean sum of the diameters of the wheals produced in the control group of animals at those antibody sites where at least five out of six of the animals gave less than maximum response. A typical variation in the control group of animals was SEM± 6%.

Row | SMILES | % Inhib PCA (5 mg/kg) [%] | % Inhib PCA (10 mg/kg) [%] | % Inhib PCA (20 mg/kg) [%] | % Inhib PCA (2 mg/kg) [%] | % Inhib PCA (4 mg/kg) [%]
1 | Cc1ccc2[nH]c3nn[nH]c3c(=O)c2c1 [Example 2, 4,9-dihydro-7-methyl-9-oxo-1H-triazolo[4,5-b] quinoline] | 16 | 65 |  |  | 
2 | O=c1c2cc(Cl)ccc2[nH]c2nn[nH]c12 [Example 3, 7-Chloro-4,9-dihydro-9-oxo-1H-triazolo[4,5-b] quinoline] | 36 |  | 70 |  | 
3 | O=c1c2ccccc2[nH]c2nn[nH]c12 [Example 1, 4,9-Dihydro-9-oxo-1H-triazolo[4,5-b] quinoline] |  | 79 |  | 14 | 22
